Results published in patent US11999715B2, “ASK1 inhibiting agents” (BIOGEN MA INC., priority 2018, dated 2024).

How the values were obtained:
[1] = target: T1, ASK1 T838 auto phosphorylation (Homo sapiens, UniProt Q99683); assay: ASK1 (AUTO PHOS T838) assay, MSD format, in HEK-293T cells transfected with ASK1-V5; type: cell-based; settings: ASK1 T838 auto phosphorylation in HEK-293T cells, 1 hr compound incubation; class symbols
T1 sequence (Q99683 1-1374): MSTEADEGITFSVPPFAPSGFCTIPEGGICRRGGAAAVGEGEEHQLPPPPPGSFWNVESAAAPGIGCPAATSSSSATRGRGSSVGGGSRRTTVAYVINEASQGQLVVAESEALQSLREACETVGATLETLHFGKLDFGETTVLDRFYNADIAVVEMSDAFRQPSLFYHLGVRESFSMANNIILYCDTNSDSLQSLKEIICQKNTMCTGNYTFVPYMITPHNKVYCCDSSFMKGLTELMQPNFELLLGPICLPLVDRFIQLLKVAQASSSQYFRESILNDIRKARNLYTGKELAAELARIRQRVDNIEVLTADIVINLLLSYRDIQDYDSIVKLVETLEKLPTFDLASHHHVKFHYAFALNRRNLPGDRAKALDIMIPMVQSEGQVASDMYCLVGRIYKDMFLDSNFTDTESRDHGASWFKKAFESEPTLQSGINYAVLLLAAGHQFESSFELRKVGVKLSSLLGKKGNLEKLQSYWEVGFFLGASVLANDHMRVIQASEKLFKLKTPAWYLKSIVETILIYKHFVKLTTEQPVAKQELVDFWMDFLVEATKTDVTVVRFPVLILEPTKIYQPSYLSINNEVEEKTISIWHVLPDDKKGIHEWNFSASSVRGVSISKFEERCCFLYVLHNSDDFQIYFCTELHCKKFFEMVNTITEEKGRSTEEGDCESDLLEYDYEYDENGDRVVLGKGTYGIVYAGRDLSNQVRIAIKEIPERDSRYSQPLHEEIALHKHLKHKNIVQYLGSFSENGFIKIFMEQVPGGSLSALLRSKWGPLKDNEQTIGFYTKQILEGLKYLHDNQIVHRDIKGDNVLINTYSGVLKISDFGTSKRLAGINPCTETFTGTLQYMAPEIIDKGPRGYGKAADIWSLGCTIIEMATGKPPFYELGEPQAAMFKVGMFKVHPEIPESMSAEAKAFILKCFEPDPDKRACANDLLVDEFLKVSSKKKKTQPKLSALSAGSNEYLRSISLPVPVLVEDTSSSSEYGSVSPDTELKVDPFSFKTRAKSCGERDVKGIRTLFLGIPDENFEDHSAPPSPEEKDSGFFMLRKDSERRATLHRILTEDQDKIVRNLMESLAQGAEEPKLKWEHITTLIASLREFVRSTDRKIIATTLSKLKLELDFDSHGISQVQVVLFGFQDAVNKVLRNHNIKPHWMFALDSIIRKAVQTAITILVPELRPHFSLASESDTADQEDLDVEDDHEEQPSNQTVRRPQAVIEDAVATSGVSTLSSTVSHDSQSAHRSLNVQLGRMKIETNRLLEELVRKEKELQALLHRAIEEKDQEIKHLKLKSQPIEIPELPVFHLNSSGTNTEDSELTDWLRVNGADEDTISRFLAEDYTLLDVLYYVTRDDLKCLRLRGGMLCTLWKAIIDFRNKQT
Protocol: Example 112: Brief Description of ASK1(AUTO PHOS T838) Assay ASK1 T838 auto phosphorylation was measured in HEK-293T cells using MSD assay format. HEK 293T cells were seeded in 15 cm plates at a density of 18 million cells and 20 mL DMEM with 10% FBS, Pen/Strep media. The plates were incubated at 37° C. overnight. Media on plates was changed to OPTI-MEM, serum free media and cells were transfected with 9 μg of ASK1-V5 tagged full length plasmid using Lipofectamine 2000 (Invitrogen) and the plates were incubated at 37° C. overnight. Cells were trypsinized, counted on Nexcellometer and plated into 96 well tissue culture plates with 100,000 cells/well and 200 μL media. Cells were incubated for 4 hr at 37° C. then ASK1 compounds were added using a HP 300e. Compounds were tested at 20 μM with 3 fold, 10 point dilution points then incubated for 1 hr at 37° C. A lysis buffer (Cell Signaling) was prepared with protease and phosphatase inhibitor and maintained at 4° C. until use. Media from cells was discarded and 120 μL of cold lysis buffer was added to the cells, the plate was shaken 4° C. for 1 hr. Lysate was mixed using Apricot liquid handler; aspirating up and down 16 times at high speed using 50 μL volume. […] Plates were then incubated on a plate shaker overnight at 4° C. Plates were washed 3× with MSD wash buffer and 50 μL of rabbit anti-pASK1 T838 antibody was added to the wells and incubated for 2 hr at room temperature on a plate shaker. Plates were then washed and 50 μL of goat anti-rabbit sulfa-tag (1:500 dilution) was added to wells, and incubated for 1 hr at room temperature on a plate shaker. […] Plates were immediately read on a MSD Instrument Reader where chemoluminescence signal was measured. Data was analyzed using Graph Pad or Genedata, the data was normalized and plotted, % activity versus log of compound concentration. The IC50 values were obtained from a 4 parameter fit. The compounds described herein were tested for in the above cell-based assay.

[2] = target: T2, ASK1/MAP3K5 (Homo sapiens, UniProt Q99683); assay: ASK1/MAP3K5 kinase assay by Reaction Biology Corp. (headed ASK1 TR-FRET Assay); type: biochemical; settings: 20 μM myelin basic protein, 10 μM ATP, class symbols
T2 sequence (Q99683 1-1374): T1 sequence (Q99683 1-1374)
Protocol: Example 111: Brief Description of ASK1 TR-FRET Assay The protein kinase inhibitory activity of the compounds described herein were tested using the ASK1/MAP3K5 assay by Reaction Biology Corp. (Malvern, PA). The assay procedure follows (and is also available on the Reaction Biology Corp. website). Base Reaction Buffer: 20 mM Hepes (pH 7.5), 10 mM MgCl2, 1 mM EGTA, 0.02% Brij35, 0.02 mg/mL BSA, 0.1 mM Na3VO4, 2 mM DTT, 1% DMSO; Substrate: 20 μM of myelin basic protein (MBP) and 10 μM ATP; Protein kinase: ASK1/MAP3K5. Reaction Procedure: • 1. Prepare indicated substrate in freshly prepared Base Reaction Buffer. • 2. Deliver any required cofactors to the substrate solution. • 3. Deliver indicated kinase into the substrate solution and gently mix. • 4. Deliver compounds in DMSO into the kinase reaction mixture by Acoustic; technology (Echo550; nanoliter range), incubate for 20 minutes at room temperature. • 5. Deliver ^33P-ATP (specific activity 10 μCi/μL) into the reaction mixture to initiate the reaction. • 6. Incubate kinase reaction for 2 hours at room temperature. • 7. Reactions are spotted onto P81 ion exchange paper. • 8. Detect kinase activity by filter-binding method.

Row | IC50 [1] [nM] | IC50 [2] [nM] | SMILES
1 | ≤ 1000 | ≤ 100 | COc1nn(C)cc1C(=O)Nc1cccc(-c2nncn2[C@@H](C)C(F)(F)F)n1 [Example 12, (S)-3-Methoxy-1-methyl-N-(6-(4-(1,1,1-trifluoropropan-2-yl)-4H-1,2,4-triazol-3-yl)pyridin-2-yl)-1H-pyrazole-4-carboxamide]
2 | ≤ 1000 | ≤ 100 | CCn1cc(C(=O)Nc2cccc(-c3nncn3C(C)C(F)(F)F)n2)c(OC)n1 (centres unmarked) [Example 13, 1-Ethyl-3-methoxy-N-(6-(4-(1,1,1-trifluoropropan-2-yl)-4H-1,2,4-triazol-3-yl)pyridin-2-yl)-1H-pyrazole-4-carboxamide]
3 | ≤ 1000 | 100 to 1000 | COCc1nn(C)cc1C(=O)Nc1cccc(-c2nncn2[C@@H](C)C(F)(F)F)n1 [Example 14]
4 | ≤ 1000 | ≤ 100 | CCn1cc(C(=O)Nc2cccc(-c3nncn3[C@@H](C)C(F)(F)F)n2)c(OC)n1 [Example 15, (S)-1-Ethyl-3-methoxy-N-(6-(4-(1,1,1-trifluoropropan-2-yl)-4H-1,2,4-triazol-3-yl)pyridin-2-yl)-1H-pyrazole-4-carboxamide]
5 | ≤ 1000 | ≤ 100 | CCOc1nn(C)cc1C(=O)Nc1cccc(-c2nncn2[C@@H](C)C(F)(F)F)n1 [Example 16, (S)-3-Ethoxy-1-methyl-N-(6-(4-(1,1,1-trifluoropropan-2-yl)-4H-1,2,4-triazol-3-yl)pyridin-2-yl)-1H-pyrazole-4-carboxamide]
6 | ≤ 1000 | ≤ 100 | COc1nn(C)cc1C(=O)Nc1cccc(-c2nncn2C2CCC2)n1 [Example 17, N-(6-(4-Cyclobutyl-4H-1,2,4-triazol-3-yl)pyridin-2-yl)-3-methoxy-1-methyl-1H-pyrazole-4-carboxamide]
7 | ≤ 1000 | ≤ 100 | COc1nn(C)cc1C(=O)Nc1cccc(-c2nncn2C2CC2)n1 [Example 18, N-(6-(4-Cyclopropyl-4H-1,2,4-triazol-3-yl)pyridin-2-yl)-3-methoxy-1-methyl-1H-pyrazole-4-carboxamide]
8 | ≤ 1000 | ≤ 100 | COc1nn(C)cc1C(=O)Nc1cccc(-c2nncn2C2CC(F)(F)C2)n1 [Example 19, N-(6-(4-(3,3-Difluorocyclobutyl)-4H-1,2,4-triazol-3-yl)pyridin-2-yl)-3-methoxy-1-methyl-1H-pyrazole-4-carboxamide]
9 | ≤ 1000 | ≤ 100 | COc1nn(C)cc1C(=O)Nc1cccc(-c2nncn2C2CCCC2)n1 [Example 20, N-(6-(4-Cyclopentyl-4H-1,2,4-triazol-3-yl)pyridin-2-yl)-3-methoxy-1-methyl-1H-pyrazole-4-carboxamide]
10 | ≤ 1000 | ≤ 100 | COc1nn(C)cc1C(=O)Nc1cccc(-c2nncn2C(C)(C)C)n1 [Example 21, N-(6-(4-(tert-Butyl)-4H-1,2,4-triazol-3-yl)pyridin-2-yl)-3-methoxy-1-methyl-1H-pyrazole-4-carboxamide]
11 | 1000 to 10000 | 1000 to 10000 | C[C@H](n1cnnc1-c1cccc(NC(=O)c2cn(C)nc2C(F)F)n1)C(F)(F)F [Example 22, (S)-3-(Difluoromethyl)-1-methyl-N-(6-(4-(1,1,1-trifluoropropan-2-yl)-4H-1,2,4-triazol-3-yl)pyridin-2-yl)-1H-pyrazole-4-carboxamide]
12 | ≤ 1000 | ≤ 100 | Cn1cc(C(=O)Nc2cccc(-c3nncn3C3(C(F)(F)F)CC3)n2)c(C(F)F)n1 [Example 24, 3-(Difluoromethyl)-1-methyl-N-(6-(4-(1-(trifluoromethyl)cyclopropyl)-4H-1,2,4-triazol-3-yl)pyridin-2-yl)-1H-pyrazole-4-carboxamide]
13 | ≤ 1000 | ≤ 100 | COc1nn(C)cc1C(=O)Nc1cccc(-c2nncn2C2(C(F)(F)F)CC2)n1 [Example 25, 3-Methoxy-1-methyl-N-(6-(4-(1-(trifluoromethyl)cyclopropyl)-4H-1,2,4-triazol-3-yl)pyridin-2-yl)-1H-pyrazole-4-carboxamide]
14 | ≤ 1000 | ≤ 100 | COc1nn(C)cc1C(=O)Nc1cccc(-c2nncn2C(C)C(F)F)n1 (centres unmarked) [Example 26, N-(6-(4-(1,1-Difluoropropan-2-yl)-4H-1,2,4-triazol-3-yl)pyridin-2-yl)-3-methoxy-1-methyl-1H-pyrazole-4-carboxamide]
15 | ≤ 1000 | ≤ 100 | COc1nn(C)cc1C(=O)Nc1cccc(-c2nncn2[C@@H](C)C(C)C)n1 [Example 29, (S)-3-Methoxy-1-methyl-N-(6-(4-(3-methylbutan-2-yl)-4H-1,2,4-triazol-3-yl)pyridin-2-yl)-1H-pyrazole-4-carboxamide]
16 | ≤ 1000 | ≤ 100 | COc1nn(C)cc1C(=O)Nc1cccc(-c2nncn2C2CCC2(F)F)n1 (centres unmarked) [Example 30, N-(6-(4-(2,2-Difluorocyclobutyl)-4H-1,2,4-triazol-3-yl)pyridin-2-yl)-3-methoxy-1-methyl-1H-pyrazole-4-carboxamide]
17 | ≤ 1000 | 100 to 1000 | COc1nn(C)cc1C(=O)Nc1cccc(-c2nncn2C2CCN(C(=O)OC(C)(C)C)CC2)n1 [Example 38, tert-Butyl 4-(3-(6-(3-methoxy-1-methyl-1H-pyrazole-4-carboxamido)pyridin-2-yl)-4H-1,2,4-triazol-4-yl)piperidine-1-carboxylate]
18 | 1000 to 10000 | 1000 to 10000 | COc1nn(C)cc1C(=O)Nc1cccc(-c2nncn2[C@@H]2CCCNC2)n1 [Example 39, (R)-3-Methoxy-1-methyl-N-(6-(4-(piperidin-3-yl)-4H-1,2,4-triazol-3-yl)pyridin-2-yl)-1H-pyrazole-4-carboxamide]
19 | ≤ 1000 | ≤ 100 | COc1nn(CC(C)C)cc1C(=O)Nc1cccc(-c2nncn2C(C)C)n1 [Example 42, 1-Isobutyl-N-(6-(4-isopropyl-4H-1,2,4-triazol-3-yl)pyridin-2-yl)-3-methoxy-1H-pyrazole-4-carboxamide]
